The source of these data is paper PMC10106510 (European Journal of Medicinal Chemistry, 2023).

In data set [1] the target is T1, SARS-CoV-2 PLpro (Severe acute respiratory syndrome coronavirus 2, UniProt P0DTD1). The experiment in a line: Papain-like protease. The following applies: variable results in dose-dependent study, IC50 not determined.
Data set [2] deals with T1, SARS-CoV-2 PLpro. The following applies: cited from earlier work.
In the next data set the test system is MERS-CoV PLpro. The settings on record: cited from earlier work.
In another data set the target is CYP3A4 (Homo sapiens, UniProt P08684).
Data set [3] has as its system Balb/c mice.
The test system of data set [4] is SARS-CoV-2 RNA (ORF1b, Spike) in infected Caco-2 cells. Type of data set: cell-based.
Data set [5] concerns Balb/c mice. The settings on record: 25, 50, and 100 mg/kg, intraperitoneal.
Data set [6] concerns SARS-CoV-2 infected Caco-2 cells (IFN-α, IL-6, OAS1 mRNA). It is filed as cell-based, Human. The settings on record: 20 μg/mL.

Each structure is given as a SMILES string.

CYP3A4, sequence (P08684 whole entry): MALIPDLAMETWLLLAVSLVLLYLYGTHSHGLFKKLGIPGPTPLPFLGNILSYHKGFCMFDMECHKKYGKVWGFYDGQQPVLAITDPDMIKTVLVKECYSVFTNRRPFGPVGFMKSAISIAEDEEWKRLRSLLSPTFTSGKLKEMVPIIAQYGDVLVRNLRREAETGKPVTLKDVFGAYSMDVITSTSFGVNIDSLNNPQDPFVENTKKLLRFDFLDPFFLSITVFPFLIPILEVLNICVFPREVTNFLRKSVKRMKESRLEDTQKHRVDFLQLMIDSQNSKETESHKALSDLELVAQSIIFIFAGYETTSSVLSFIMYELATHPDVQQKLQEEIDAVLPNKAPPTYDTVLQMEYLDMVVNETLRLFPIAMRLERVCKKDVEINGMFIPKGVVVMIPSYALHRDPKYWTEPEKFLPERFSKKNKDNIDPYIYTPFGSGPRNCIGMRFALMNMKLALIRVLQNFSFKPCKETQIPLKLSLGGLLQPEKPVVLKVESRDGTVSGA

For `COC(=O)C[C@@H]1COc2ccccc2[C@H](C(=O)NC(C)(C)C)N(CCc2c[nH]c3ccc(OC)cc23)C(=O)[C@@H]1c1nnc(-c2cccc(C(F)(F)F)c2)o1` [SIMR2304], the “PLpro inhibitory activity, initial screening” value at SARS-CoV-2 PLpro [1] was “very strong inhibitory activity”.

On to `Cc1ccc(N)cc1C(=O)N[C@H](C)c1cccc2ccccc12` [GRL0617], for which the “inhibitory activity in a cell-based assay” value on SARS-CoV-2 PLpro [2] is given as “moderate to weak”. The “activity against MERS-CoV PLpro” value in the data set with MERS-CoV PLpro is given as “inactivity”.

Take `CC1(C)[C@H]2COc3ccc4ccccc4c3[C@H]2N=C2SC=C(c3ccc(S(=O)(=O)N4CCOCC4)cc3)N21` [SIMR1493]: the “CYP3A4 IC50” value on CYP3A4 amounted to 134 µM.

For `COc1ccc2[nH]c3c(c2c1)C[C@]1(OC)CC[C@H]2c4[nH]c5ccccc5c4CCN2[C@@H]1C3` [SIMR3030], the platelet population result with Balb/c mice [3] (25 mg/kg multiple dose, hematological analysis) is “slight reduction”. Further, the “signs of toxicity or weight loss, multiple dose” value with Balb/c mice [3] (12.5 and 25 mg/kg, intraperitoneal, daily for 14 days) is “no signs of toxicity or weight loss”. Further, the “microscopic investigation of organs (liver, spleen, kidneys, heart, lungs)” value with Balb/c mice [3] (H&E staining, 12.5 and 25 mg/kg multiple dose) was “no histologic variations and no signs of toxic injury”. The “Spike RNA inhibition” value in data set [4] (20 μg/mL, 1, 6 and 12 h) was “observed only after 6 and 12 h”. In data set [4] (20 μg/mL, at 1, 6 and 12 h), the “viral ORFb1 RNA inhibition” value is given as “more than 70%”. Moreover, the “signs of toxicity or body weight loss, single dose” value in the data set with Balb/c mice [5] is “no signs of toxicity or body weight loss”. In addition, in data set [6] (at 1, 3 and 12 h), the “IL-6 mRNA expression” value is given as “significantly reduced” and the “OAS1 mRNA expression” value is listed as “significantly reduced”. For the same molecule, the “IFN-α mRNA expression” value in data set [6] (at 1 and 3 h) is “significantly reduced”.
